Test results reported in ChEMBL document CHEMBL5365443, “Synthesis and biological evaluation of simplified ajudazol derivatives reveal potent 5-lipoxygenase inhibition and considerable apoptotic activity in neuroblastoma cells” (Bioorg Med Chem Lett, 2023).
pIC50: −log10 of the molar value. The source made the active and inactive calls. The calls are words filed in the database; no cut-off is given here.

Experiments:
B104 [1] = experiment: Induction of apoptosis in rat B104 cells assessed as DNA fragmentation at 100 uM by DNA laddering assay; type: functional, cell-based
[2] = Drug degradation in methanol assessed as half life; type: ADME
[3] = target: T1, Polyunsaturated fatty acid 5-lipoxygenase (Homo sapiens, UniProt P09917); experiment: Inhibition of 5-LO (unknown origin)
T1 sequence (P09917 whole entry): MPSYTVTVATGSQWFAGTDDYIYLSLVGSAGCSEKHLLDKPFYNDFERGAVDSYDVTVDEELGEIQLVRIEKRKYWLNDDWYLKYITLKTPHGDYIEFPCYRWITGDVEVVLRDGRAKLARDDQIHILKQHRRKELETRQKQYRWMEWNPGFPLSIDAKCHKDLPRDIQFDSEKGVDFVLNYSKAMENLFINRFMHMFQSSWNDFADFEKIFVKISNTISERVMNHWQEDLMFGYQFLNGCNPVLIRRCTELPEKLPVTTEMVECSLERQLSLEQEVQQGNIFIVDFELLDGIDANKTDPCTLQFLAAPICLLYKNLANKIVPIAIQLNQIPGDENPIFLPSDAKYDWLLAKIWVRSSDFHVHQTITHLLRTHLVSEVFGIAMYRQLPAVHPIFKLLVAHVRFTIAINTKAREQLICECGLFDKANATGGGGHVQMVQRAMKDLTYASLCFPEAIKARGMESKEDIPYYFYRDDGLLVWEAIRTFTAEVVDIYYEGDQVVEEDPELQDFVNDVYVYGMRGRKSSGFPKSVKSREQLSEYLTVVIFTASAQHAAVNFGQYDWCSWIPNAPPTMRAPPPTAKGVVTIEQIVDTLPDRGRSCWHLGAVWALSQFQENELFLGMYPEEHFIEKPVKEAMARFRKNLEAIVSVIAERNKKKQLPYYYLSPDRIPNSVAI

B104 [4] = experiment: Antiproliferative activity against rat B104 cells assessed as reduction in cell growth by MTT assay; type: functional, cell-based
SH-SY5Y = experiment: Antiproliferative activity against human SH-SY5Y cells assessed as reduction in cell growth at 10 to 1000 nM; type: functional, cell-based; conditions: dose 10-1000 nM
B104 [5] = experiment: Induction of apoptosis in rat B104 cells assessed as DNA fragmentation at 10 uM by DNA laddering assay; type: functional, cell-based
[6] = target: T1, Polyunsaturated fatty acid 5-lipoxygenase; experiment: Inhibition of 5-LO in human neutrophils; type: cell-based, Neutrophil
1321N1 = experiment: Antiproliferative activity against human 1321N1 cells assessed as inhibition of cell growth by MTT assay; type: functional, cell-based
Prostaglandin E synthase = target: T2, Prostaglandin E synthase (Homo sapiens, UniProt O14684); experiment: Inhibition of mPGES-1 (unknown origin)
T2 sequence (O14684 whole entry): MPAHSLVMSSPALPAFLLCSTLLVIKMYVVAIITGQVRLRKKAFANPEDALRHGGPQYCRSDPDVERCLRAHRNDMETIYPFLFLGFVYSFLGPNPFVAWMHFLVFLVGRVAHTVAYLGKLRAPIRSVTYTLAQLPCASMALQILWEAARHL

B104 [7] = experiment: Antiproliferative activity against rat B104 cells assessed as reduction in cell growth at 10 to 1000 nM; type: functional, cell-based; conditions: dose 10-1000 nM
B104 [8] = experiment: Effect on NADH:UQ oxidoreductase expression in rat B104 cells; type: functional, cell-based
B104 [9] = experiment: Upregulation of ICDH mRNA expression in rat B104 cells; type: functional, cell-based
B104 [10] = experiment: Upregulation of LDH mRNA expression in rat B104 cells; type: functional, cell-based
B104 [11] = experiment: Upregulation of NADH mRNA expression in rat B104 cells; type: functional, cell-based
B104 [12] = experiment: Upregulation of […] mRNA expression in rat B104 cells; type: functional, cell-based
B104 [13] = experiment: Upregulation of LDH level in rat B104 cells at 10 nM; type: functional, cell-based
B104 [14] = experiment: Upregulation of OGDH level in rat B104 cells at 10 nM; type: functional, cell-based
B104 [15] = experiment: Upregulation of ICDH level in rat B104 cells at 10 nM; type: functional, cell-based

Row | SMILES | Activity (B104 [1]) | half-life [2] [h] | pIC50 [3] | Activity (B104 [4]) | Activity (SH-SY5Y) | Activity (B104 [5]) | pIC50 [6] | pIC50 (1321N1) | pIC50 (Prostaglandin E synthase) | Activity (B104 [7]) | Activity (B104 [8]) | Activity (B104 [9]) | Activity (B104 [10]) | Activity (B104 [11]) | Activity (B104 [12]) | Activity (B104 [13]) | Activity (B104 [14]) | Activity (B104 [15])
1 | C=C(C/C=C\C=C/CC/C=C/CN(C)C(=O)/C=C(\C)OC)c1nc(C[C@@H](C)[C@H]2OC(=O)c3c(ccc(C)c3O)[C@@H]2O)co1 | inactive | ~168 | 5.96 | Active | Active | Active | 5.60 | 5.03 | 5.49 | Active | – | – | – | – | – | – | – | –
2 | C=C(I)CCO[Si](CC)(CC)CC | – | – | – | – | – | – | – | – | – | – | Active | Active | inactive | Active | Active | – | – | –
3 | C=C(C/C=C\C=C/CC/C=C/CN(C)C(=O)/C=C(\C)OC)c1ncco1 | – | – | 4.61 | – | – | – | < 4.52 | 5.37 | < 4.52 | – | – | – | – | – | – | – | – | –
4 | C=C(C/C=C\C=C/CC/C=C/CN(C)C(=O)/C=C(\C)OC)c1nc(C[C@H](C)[C@@H]2CC[C@@H](C)C[C@H]2O)co1 | inactive | – | 6.00 | Active | Active | Active | 5.28 | 5.48 | 4.73 | Active | – | – | – | – | – | inactive | Active | Active
5 | CO/C(C)=C/C(=O)N(C)C/C=C/CC/C=C\C=C/C[C@@H](C)c1nc(C[C@@H](C)[C@H]2OC(=O)c3c(ccc(C)c3O)[C@@H]2O)co1 | – | – | 5.16 | – | – | – | 5.80 | – | – | – | – | – | – | – | – | – | – | –
